“And” between values parts separate entries of the source, which are not always exact repeats. Equal entries are not always repeated.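 How tested: cells in 96-well plates exposed to compound for 48 hours at five concentrations. Abbreviation: GI50, concentration required for 50% inhibition of growth. At the TGI there is no net growth.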
Experiments:
Experiment in all cases: growth of human tumour cells (NCI), 48 h
UO-31 renal = system: UO-31 renal
BT-549 breast = system: BT-549 breast
SNB-75 CNS = system: SNB-75 CNS
HCT-15 colon = system: HCT-15 colon
HT29 colon = system: HT29 colon
SF-295 CNS = system: SF-295 CNS
OVCAR-3 ovarian = system: OVCAR-3 ovarian
M14 melanoma = system: M14 melanoma
RPMI-8226 leukemia = system: RPMI-8226 leukemia
OVCAR-5 ovarian = system: OVCAR-5 ovarian

Structure (SMILES) | GI50 (UO-31 renal) | TGI (UO-31 renal) | GI50 (BT-549 breast) | TGI (BT-549 breast) | GI50 (SNB-75 CNS) | TGI (SNB-75 CNS) | GI50 (HCT-15 colon) | TGI (HCT-15 colon) | GI50 (HT29 colon) | TGI (HT29 colon) | GI50 (SF-295 CNS) | TGI (SF-295 CNS) | GI50 (OVCAR-3 ovarian) | TGI (OVCAR-3 ovarian) | GI50 (M14 melanoma) | TGI (M14 melanoma) | GI50 (RPMI-8226 leukemia) | TGI (RPMI-8226 leukemia) | GI50 (OVCAR-5 ovarian) | TGI (OVCAR-5 ovarian)
C=CC(=O)Nc1cccc(Oc2nc(Nc3ccc(N4CCN(C)CC4)cc3)nc3ccsc23)c1 | 0.962 µM and 1.11 µM | 3.69 µM and 3.38 µM | 2.8 µM and 3.62 µM | > 10 µM and 14.6 µM | 1.54 µM and 2.1 µM | > 10 µM and 10.5 µM | 2.32 µM and 2.54 µM | 9.5 µM and 10.6 µM | 1.91 µM and 2.72 µM | 4.05 µM and 5.81 µM | 7.68 µM | > 10 µM and 21.3 µM | 2.11 µM and 1.88 µM | 9.29 µM and 4.79 µM | 1.87 µM and 2.01 µM | 3.75 µM and 3.8 µM | 2.01 µM and 1.96 µM | 4.91 µM and 4.62 µM | 3.61 µM and 8.09 µM | > 10 µM and 25.2 µM
O=C1OCC2=C1C(c1ccccc1)c1cc3c(cc1N2)OCO3 (stereo not given) | 0.332 µM | > 100 µM | 0.0441 µM | 4.97 µM | 0.0201 µM | 1.16 µM | 0.0373 µM | > 53.1 µM | 0.0351 µM | > 59 µM | 0.0169 µM |  | 0.0202 µM | 0.0486 µM | 0.0276 µM | > 100 µM | 0.0571 µM |  | 0.0829 µM | > 100 µM
CC(=O)/C=C/c1cn(C(=O)OC(C)(C)C)c2ccc(Br)cc12 | 10.3 µM | 51.9 µM | 5.87 µM | 26.4 µM | 14.4 µM | 39.3 µM | 20.9 µM | > 100 µM | 10.6 µM | 24.8 µM | 14.1 µM | 28.8 µM | 13 µM | 28.3 µM | 30.1 µM | > 100 µM | 9.41 µM | > 66.5 µM | 25.6 µM | 53.9 µM
O=C1NC(=O)C(N2C(=O)c3ccccc3C2=O)CC1O (stereo not given) | > 100 µM | > 100 µM | > 100 µM | > 100 µM | > 100 µM | > 100 µM | > 100 µM | > 100 µM | > 100 µM | > 100 µM | > 100 µM | > 100 µM | > 100 µM | > 100 µM | > 100 µM | > 100 µM | > 100 µM | > 100 µM | > 100 µM | > 100 µM
OCC1OC(n2cnc3c(N/N=C\c4ccccn4)ncnc32)C(O)C1O (stereo not given) | 0.235 µM | 1.44 µM | 0.256 µM | 23 µM | 0.613 µM | 12.9 µM | 0.129 µM | > 100 µM | 0.417 µM | > 100 µM | 0.936 µM | 16.5 µM | 0.319 µM | 3.04 µM | 0.426 µM | 3.89 µM | 0.736 µM | > 25.3 µM | 0.467 µM | > 100 µM
CC1=C2[C@@H](CC1)[C@]1(C)O[C@@](c3ccccc3)(C[C@H]1OC(=O)CO)[C@H]2OC(=O)/C=C/c1ccccc1 | 0.618 µM | 27.6 µM | 0.487 µM | 15.8 µM | 14.2 µM | 53.6 µM | 13.3 µM | 35.6 µM | 15.1 µM | 34.1 µM | 12.8 µM | 31.7 µM | 15 µM | 30.6 µM | 15.8 µM | 39.1 µM | 12.8 µM | 43.7 µM | 20.2 µM | 47.4 µM
COc1ccc2cc1Oc1ccc(cc1)C[C@H]1c3c(cc4c(c3Oc3cc5c(cc3OC)CCN(C)[C@@H]5C2)OCO4)CCN1C | 5.41 µM | 11.7 µM | 5.12 µM | 11.8 µM | 5.27 µM | 11.4 µM | 2.02 µM | 8.34 µM | 0.237 µM | 2.56 µM |  |  | 5.38 µM | 15 µM | 0.903 µM | 1.76 µM | 1.56 µM | 8.7 µM | 6.65 µM | 13.5 µM
O=S(=O)(c1ccc(Cl)cc1)C(Cl)(Cl)Cl | 0.298 µM | 11.5 µM | 1.4 µM | 7.48 µM | 2.34 µM | 20.3 µM | 1.19 µM | > 100 µM | 2.85 µM | 22.5 µM | 5.3 µM | 23 µM | 0.886 µM | 4.45 µM | 1.63 µM | 4.32 µM | 3.35 µM | > 52.9 µM | 12.7 µM | 69.6 µM
O=C(O)CN1CCN(CC(=O)O)CC(=O)[O][Hg][O]C(=O)C1 | 17.5 µM | 31.4 µM | 19.5 µM | 34.8 µM | 23.6 µM | 66.5 µM | 21.1 µM | 46.5 µM | 16 µM | 34.1 µM | > 100 µM | > 100 µM | 16.9 µM | 30.6 µM | 16.4 µM | 31 µM | 18.2 µM | 50.5 µM | 18.7 µM | 38.5 µM
COc1cc2nc(N3CCCC3)nc(NCCc3ccccc3)c2cc1OC | 1.29 µM | 2.69 µM | 1.75 µM | 3.51 µM | 1.52 µM | 2.89 µM | 1.67 µM | 3.26 µM | 1.81 µM | 4.19 µM | 1.8 µM | 3.43 µM | 1.96 µM | 3.68 µM | 1.8 µM | 3.69 µM | 2.18 µM | 5.75 µM | 1.72 µM | 3.21 µM
COc1ccc2c(c1)N(CCO)C1=C(C(=O)OC1)C2c1cccc(F)c1 (stereo not given) | 0.413 µM | > 50 µM | 0.761 µM | > 14.4 µM | 0.186 µM | 13.6 µM | 0.233 µM | > 50 µM | 0.23 µM | > 19.8 µM | 0.196 µM | > 50 µM | 0.188 µM |  | 0.285 µM | > 50 µM | 0.629 µM | > 50 µM | 2.07 µM | > 50 µM
O=C1CCC(N2Cc3cc(CNC(=O)C(F)(F)c4ccc(Cl)cc4)ccc3C2=O)C(=O)N1 (stereo not given) | 0.32 µM | > 100 µM | 0.237 µM | > 74.2 µM | 0.152 µM | > 100 µM | 0.511 µM | > 100 µM | > 100 µM | > 100 µM | > 100 µM | > 100 µM | > 100 µM | > 100 µM | 38.4 µM | > 100 µM | > 54.7 µM | > 100 µM | > 100 µM | > 100 µM

Reference: PubChem BioAssay (NCI)
